From ChEMBL document CHEMBL4330071 (Eur J Med Chem, 2019)

Experiments:
[1] = molecular target: Tyrosine-protein kinase ABL1 (Homo sapiens, UniProt P00519); assay: Inhibition of human ABL1 assessed as residual activity at 10 uM using EAIYAAPFAKKK as substrate preincubated for 20 mins followed by [gamma-33P]-ATP addition and measured after 120 mins by Hotspot assay relative to control
[2] = molecular target: Cyclin-dependent kinase 7/ cyclin H (Homo sapiens) (UniProt P51946+P50613); assay: Inhibition of human CDK7/cyclin-H assessed as residual activity at 10 uM using MBP as substrate preincubated for 20 mins followed by [gamma-33P]-ATP addition and measured after 120 mins by Hotspot assay relative to control; assay type: protein-complex assay
[3] = molecular target: CDK9/cyclin T1 (Homo sapiens) (UniProt O60563+P50750); assay: Inhibition of human CDK9/cyclin-T1 assessed as residual activity at 10 uM using KTFCGTPEYLAPEVRREPRILSEEEQEMFRDFDYIADWC as substrate preincubated for 20 mins followed by [gamma-33P]-ATP addition and measured after 120 mins by Hotspot assay relative to control; assay type: protein-complex assay
[4] = molecular target: Serine/threonine-protein kinase Chk1 (Homo sapiens) (UniProt O14757); assay: Inhibition of human CHK1 assessed as residual activity at 10 uM using KKKVSRSGLYRSPSMPENLNRPR as substrate preincubated for 20 mins followed by [gamma-33P]-ATP addition and measured after 120 mins by Hotspot assay relative to control
[5] = molecular target: Hepatocyte growth factor receptor (Homo sapiens) (UniProt P08581); assay: Inhibition of human c-MET assessed as residual activity at 10 uM using KKKSPGEYVNIEFG as substrate preincubated for 20 mins followed by [gamma-33P]-ATP addition and measured after 120 mins by Hotspot assay relative to control
Sequence of Hepatocyte growth factor receptor (Homo sapiens) (P08581 whole entry, the tested form may be a part): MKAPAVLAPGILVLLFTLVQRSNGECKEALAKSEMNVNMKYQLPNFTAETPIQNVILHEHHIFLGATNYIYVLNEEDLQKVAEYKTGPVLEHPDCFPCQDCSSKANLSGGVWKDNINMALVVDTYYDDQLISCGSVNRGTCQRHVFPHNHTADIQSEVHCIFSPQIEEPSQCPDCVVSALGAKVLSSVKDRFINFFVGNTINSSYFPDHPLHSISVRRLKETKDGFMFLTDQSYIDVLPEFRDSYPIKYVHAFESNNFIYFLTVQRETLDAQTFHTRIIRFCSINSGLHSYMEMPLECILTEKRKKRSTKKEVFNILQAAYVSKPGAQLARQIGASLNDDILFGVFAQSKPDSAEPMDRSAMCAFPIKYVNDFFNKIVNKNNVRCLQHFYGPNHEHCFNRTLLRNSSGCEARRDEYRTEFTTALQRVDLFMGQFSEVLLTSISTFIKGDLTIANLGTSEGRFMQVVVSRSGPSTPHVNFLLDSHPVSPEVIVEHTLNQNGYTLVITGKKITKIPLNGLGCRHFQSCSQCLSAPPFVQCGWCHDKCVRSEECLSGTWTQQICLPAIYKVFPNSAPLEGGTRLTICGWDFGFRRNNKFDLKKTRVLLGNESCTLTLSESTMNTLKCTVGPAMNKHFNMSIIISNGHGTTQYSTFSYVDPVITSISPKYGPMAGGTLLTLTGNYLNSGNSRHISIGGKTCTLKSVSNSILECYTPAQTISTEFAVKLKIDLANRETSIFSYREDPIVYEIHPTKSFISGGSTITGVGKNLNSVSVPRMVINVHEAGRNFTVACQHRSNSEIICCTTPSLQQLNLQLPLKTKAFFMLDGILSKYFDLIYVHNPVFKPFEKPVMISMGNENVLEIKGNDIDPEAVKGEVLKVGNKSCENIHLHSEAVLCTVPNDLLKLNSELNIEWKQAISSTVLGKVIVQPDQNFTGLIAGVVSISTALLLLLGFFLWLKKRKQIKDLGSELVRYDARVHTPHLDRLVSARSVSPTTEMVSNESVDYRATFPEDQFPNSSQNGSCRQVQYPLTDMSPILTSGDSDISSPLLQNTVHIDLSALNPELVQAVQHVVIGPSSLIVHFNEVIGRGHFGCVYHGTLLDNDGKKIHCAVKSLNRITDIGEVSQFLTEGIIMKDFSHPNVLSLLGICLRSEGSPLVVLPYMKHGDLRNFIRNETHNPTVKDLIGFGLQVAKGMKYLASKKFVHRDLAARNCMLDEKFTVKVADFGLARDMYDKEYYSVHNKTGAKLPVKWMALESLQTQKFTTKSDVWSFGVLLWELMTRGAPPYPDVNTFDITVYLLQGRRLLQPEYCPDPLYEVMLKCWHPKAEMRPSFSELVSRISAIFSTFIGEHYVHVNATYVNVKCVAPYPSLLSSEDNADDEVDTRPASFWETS

[6] = molecular target: Discoidin domain-containing receptor 2 (Homo sapiens) (UniProt Q16832); assay: Inhibition of human DDR2 assessed as residual activity at 10 uM using KKSRGDYMTMQIG as substrate preincubated for 20 mins followed by [gamma-33P]-ATP addition and measured after 120 mins by Hotspot assay relative to control
[7] = molecular target: Mitogen-activated protein kinase 3 (Homo sapiens) (UniProt P27361); assay: Inhibition of human ERK1 assessed as residual activity at 10 uM using MBP as substrate preincubated for 20 mins followed by [gamma-33P]-ATP addition and measured after 120 mins by Hotspot assay relative to control
Sequence of Mitogen-activated protein kinase 3 (Homo sapiens) (P27361 whole entry): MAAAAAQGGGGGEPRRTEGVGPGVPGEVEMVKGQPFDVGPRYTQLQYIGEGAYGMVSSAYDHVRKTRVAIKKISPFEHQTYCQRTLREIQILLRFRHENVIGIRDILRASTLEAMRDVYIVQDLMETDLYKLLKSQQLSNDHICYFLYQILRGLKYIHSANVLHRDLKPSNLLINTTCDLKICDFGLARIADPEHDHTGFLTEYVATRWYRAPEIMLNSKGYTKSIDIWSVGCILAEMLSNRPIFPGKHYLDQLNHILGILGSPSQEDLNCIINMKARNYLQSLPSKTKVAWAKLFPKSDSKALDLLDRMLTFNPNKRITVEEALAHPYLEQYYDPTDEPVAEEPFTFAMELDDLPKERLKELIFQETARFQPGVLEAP

[8] = molecular target: Mitogen-activated protein kinase 8 (Homo sapiens) (UniProt P45983); assay: Inhibition of human JNK1 assessed as residual activity at 10 uM using ATF2 as substrate preincubated for 20 mins followed by [gamma-33P]-ATP addition and measured after 120 mins by Hotspot assay relative to control
Sequence of Mitogen-activated protein kinase 8 (Homo sapiens) (P45983 whole entry): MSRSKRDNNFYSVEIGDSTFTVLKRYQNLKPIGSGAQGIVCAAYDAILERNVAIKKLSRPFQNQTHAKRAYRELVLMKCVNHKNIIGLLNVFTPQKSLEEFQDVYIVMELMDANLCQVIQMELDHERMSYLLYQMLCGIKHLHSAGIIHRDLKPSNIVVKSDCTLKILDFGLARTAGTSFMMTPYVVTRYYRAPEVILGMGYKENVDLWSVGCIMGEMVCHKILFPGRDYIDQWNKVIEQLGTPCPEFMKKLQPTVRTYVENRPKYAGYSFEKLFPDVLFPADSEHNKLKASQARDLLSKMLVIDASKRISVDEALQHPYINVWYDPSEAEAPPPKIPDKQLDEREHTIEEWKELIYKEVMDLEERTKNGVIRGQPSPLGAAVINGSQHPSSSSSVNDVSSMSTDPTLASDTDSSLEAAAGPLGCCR

[9] = molecular target: Vascular endothelial growth factor receptor 2 (Homo sapiens, UniProt P35968); assay: Inhibition of human KDR assessed as residual activity at 10 uM using poly[Glu:Tyr] (4:1) as substrate preincubated for 20 mins followed by [gamma-33P]-ATP addition and measured after 120 mins by Hotspot assay relative to control
Sequence of Vascular endothelial growth factor receptor 2 (P35968 whole entry): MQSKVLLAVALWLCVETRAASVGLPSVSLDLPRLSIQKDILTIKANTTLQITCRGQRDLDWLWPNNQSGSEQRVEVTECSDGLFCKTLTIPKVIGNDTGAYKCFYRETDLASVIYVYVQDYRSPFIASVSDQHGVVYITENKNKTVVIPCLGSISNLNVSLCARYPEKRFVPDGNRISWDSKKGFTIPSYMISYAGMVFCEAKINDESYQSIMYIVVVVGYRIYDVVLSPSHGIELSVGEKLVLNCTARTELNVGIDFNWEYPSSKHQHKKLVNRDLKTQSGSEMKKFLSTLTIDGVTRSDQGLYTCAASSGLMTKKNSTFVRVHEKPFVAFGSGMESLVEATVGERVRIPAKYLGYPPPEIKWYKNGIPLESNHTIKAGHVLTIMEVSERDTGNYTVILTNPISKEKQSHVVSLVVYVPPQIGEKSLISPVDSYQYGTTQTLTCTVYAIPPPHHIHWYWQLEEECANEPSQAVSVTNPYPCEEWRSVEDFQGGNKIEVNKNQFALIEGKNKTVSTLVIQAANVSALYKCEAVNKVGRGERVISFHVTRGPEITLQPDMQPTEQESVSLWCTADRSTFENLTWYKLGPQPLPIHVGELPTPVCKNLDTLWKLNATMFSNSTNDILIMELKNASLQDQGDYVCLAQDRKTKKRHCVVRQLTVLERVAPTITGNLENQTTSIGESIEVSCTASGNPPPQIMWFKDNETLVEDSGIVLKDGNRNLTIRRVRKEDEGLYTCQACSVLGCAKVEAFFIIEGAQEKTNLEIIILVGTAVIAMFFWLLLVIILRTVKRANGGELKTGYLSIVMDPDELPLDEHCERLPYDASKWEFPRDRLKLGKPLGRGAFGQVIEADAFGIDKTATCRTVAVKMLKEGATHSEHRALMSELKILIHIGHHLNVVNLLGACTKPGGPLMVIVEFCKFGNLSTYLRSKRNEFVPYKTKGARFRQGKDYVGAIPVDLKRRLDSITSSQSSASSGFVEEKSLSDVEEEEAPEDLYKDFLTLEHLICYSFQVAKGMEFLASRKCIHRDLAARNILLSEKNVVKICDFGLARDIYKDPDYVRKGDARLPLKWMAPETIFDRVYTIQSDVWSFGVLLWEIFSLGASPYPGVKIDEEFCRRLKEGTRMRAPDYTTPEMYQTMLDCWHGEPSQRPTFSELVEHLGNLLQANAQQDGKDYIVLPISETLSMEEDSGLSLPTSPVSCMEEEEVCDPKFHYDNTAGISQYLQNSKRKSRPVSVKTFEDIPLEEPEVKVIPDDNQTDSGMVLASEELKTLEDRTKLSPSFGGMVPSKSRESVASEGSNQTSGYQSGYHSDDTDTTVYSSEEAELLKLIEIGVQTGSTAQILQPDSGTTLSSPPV

[10] = molecular target: Serine/threonine-protein kinase pim-1 (Homo sapiens) (UniProt P11309); assay: Inhibition of human PIM1 assessed as residual activity at 10 uM using KKRNRTLTK as substrate preincubated for 20 mins followed by [gamma-33P]-ATP addition and measured after 120 mins by Hotspot assay relative to control
Sequence of Serine/threonine-protein kinase pim-1 (Homo sapiens) (P11309 whole entry, looked up, the tested form may be a part): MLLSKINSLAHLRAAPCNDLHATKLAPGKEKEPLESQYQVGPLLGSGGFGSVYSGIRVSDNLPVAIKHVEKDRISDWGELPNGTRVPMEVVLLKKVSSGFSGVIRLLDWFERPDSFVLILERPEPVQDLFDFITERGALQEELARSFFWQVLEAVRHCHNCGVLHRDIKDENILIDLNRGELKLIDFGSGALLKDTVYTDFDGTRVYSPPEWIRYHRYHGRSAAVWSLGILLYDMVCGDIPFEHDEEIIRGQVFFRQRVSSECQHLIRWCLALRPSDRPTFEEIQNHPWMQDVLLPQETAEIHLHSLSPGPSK

[11] = molecular target: Tyrosine-protein kinase ABL1 (Homo sapiens, UniProt P00519, T315I); assay: Binding affinity to human phosphorylated ABL1 T315I mutant (S229 to K512 residues) expressed in mammalian expression system after 60 mins by Kinomescan method
[12] = molecular target: Serine/threonine-protein kinase Nek2 (Homo sapiens, UniProt P51955); assay: Inhibition of human NEK2 using MBP as substrate preincubated for 20 mins followed by [gamma-33P]-ATP addition and measured after 120 mins by Hotspot assay
Sequence of Serine/threonine-protein kinase Nek2 (P51955 whole entry): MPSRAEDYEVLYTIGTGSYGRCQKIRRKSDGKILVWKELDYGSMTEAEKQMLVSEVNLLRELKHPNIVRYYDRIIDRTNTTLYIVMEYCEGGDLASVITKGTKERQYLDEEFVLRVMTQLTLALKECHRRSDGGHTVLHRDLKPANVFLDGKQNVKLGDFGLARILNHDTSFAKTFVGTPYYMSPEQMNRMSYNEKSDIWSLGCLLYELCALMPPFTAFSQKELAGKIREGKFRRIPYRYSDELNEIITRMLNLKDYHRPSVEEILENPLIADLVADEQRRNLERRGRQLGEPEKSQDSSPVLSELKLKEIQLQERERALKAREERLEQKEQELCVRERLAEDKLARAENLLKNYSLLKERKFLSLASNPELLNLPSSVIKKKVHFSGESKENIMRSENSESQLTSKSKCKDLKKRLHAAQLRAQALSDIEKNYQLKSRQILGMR

[13] = molecular target: Proto-oncogene tyrosine-protein kinase Src (Homo sapiens, UniProt P12931); assay: Inhibition of human c-SRC using poly[Glu:Tyr] (4:1) as substrate preincubated for 20 mins followed by [gamma-33P]-ATP addition and measured after 120 mins by Hotspot assay
Sequence of Proto-oncogene tyrosine-protein kinase Src (P12931 2-536 limits assumed): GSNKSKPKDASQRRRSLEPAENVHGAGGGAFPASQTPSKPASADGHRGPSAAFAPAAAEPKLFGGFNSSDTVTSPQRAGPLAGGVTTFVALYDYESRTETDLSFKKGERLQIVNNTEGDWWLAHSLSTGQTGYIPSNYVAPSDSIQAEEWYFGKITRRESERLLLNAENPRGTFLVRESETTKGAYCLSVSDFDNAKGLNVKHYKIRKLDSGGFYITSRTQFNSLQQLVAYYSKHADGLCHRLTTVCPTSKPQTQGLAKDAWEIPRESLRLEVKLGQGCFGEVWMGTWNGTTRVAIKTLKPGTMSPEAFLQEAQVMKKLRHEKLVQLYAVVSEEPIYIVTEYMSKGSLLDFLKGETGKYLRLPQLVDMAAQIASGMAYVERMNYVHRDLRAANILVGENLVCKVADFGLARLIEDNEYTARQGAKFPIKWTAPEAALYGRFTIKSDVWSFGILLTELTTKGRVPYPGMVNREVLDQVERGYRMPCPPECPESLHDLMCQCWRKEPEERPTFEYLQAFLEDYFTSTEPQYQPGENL

MOLM-13 = assay: Growth inhibition of human MOLM13 cells harboring FLT3 ITD mutant at 10 uM after 72 hrs by CellTiter-Glo assay relative to control; assay type: functional; conditions: MOLM-13, 72 h, read-out: GI
MV4-11 [14] = assay: Growth inhibition of human MV4-11 cells harboring FLT3 ITD mutant at 10 uM after 72 hrs by CellTiter-Glo assay relative to control; assay type: functional; conditions: MV4-11, 72 h, read-out: GI
HuT78 = assay: Growth inhibition of human HUT78 cells at 10 uM after 72 hrs by CellTiter-Glo assay relative to control; assay type: functional; conditions: HuT78, 72 h, read-out: GI
MCF7 = assay: Growth inhibition of human MCF7 cells at 10 uM after 72 hrs by CellTiter-Glo assay relative to control; assay type: functional; conditions: MCF7, 72 h, read-out: GI
SMMC-7721 = assay: Growth inhibition of human SMMC7721 cells at 10 uM after 72 hrs by CellTiter-Glo assay relative to control; assay type: functional; conditions: SMMC-7721, 72 h, read-out: GI
MV4-11 [15] = assay: Cell cycle arrest in human MV4-11 cells assessed as accumulation at G2/M phase after 24 hrs by ribonuclease/propidium iodide staining based flow cytometric analysis; assay type: functional
MV4-11 [16] = assay: Induction of apoptosis in human MV4-11 cells after 24 hrs by Annexin V-FITC/propidium iodide staining based flow cytometric analysis; assay type: functional, cell-based
MV4-11 [17] = assay: Induction of apoptosis in human MV4-11 cells assessed as viable cells at 0.02 uM after 24 hrs by Annexin V-FITC/propidium iodide staining based flow cytometric analysis (reference value: 95.19%); assay type: functional; conditions: MV4-11, 24 h, read-out: Activity
MV4-11 [18] = assay: Induction of apoptosis in human MV4-11 cells assessed as viable cells at 0.05 uM after 24 hrs by Annexin V-FITC/propidium iodide staining based flow cytometric analysis (reference value: 95.19%); assay type: functional; conditions: MV4-11, 24 h, read-out: Activity
MV4-11 [19] = assay: Induction of apoptosis in human MV4-11 cells assessed as viable cells at 0.1 uM after 24 hrs by Annexin V-FITC/propidium iodide staining based flow cytometric analysis (reference value: 95.19%); assay type: functional; conditions: MV4-11, 24 h, read-out: Activity
MV4-11 [20] = assay: Induction of apoptosis in human MV4-11 cells assessed as late apoptotic cells at 0.2 uM after 24 hrs by Annexin V-FITC/propidium iodide staining based flow cytometric analysis (reference value: 1.42%); assay type: functional
MV4-11 [21] = assay: Induction of apoptosis in human MV4-11 cells assessed as viable cells at 0.2 uM after 24 hrs by Annexin V-FITC/propidium iodide staining based flow cytometric analysis (reference value: 95.19%); assay type: functional; conditions: MV4-11, 24 h, read-out: Activity
MV4-11 [22] = assay: Induction of apoptosis in human MV4-11 cells assessed as early apoptotic cells at 0.5 uM after 24 hrs by Annexin V-FITC/propidium iodide staining based flow cytometric analysis (reference value: 3.39%); assay type: functional
MV4-11 [23] = assay: Induction of apoptosis in human MV4-11 cells assessed as early apoptotic cells at 1 uM after 24 hrs by Annexin V-FITC/propidium iodide staining based flow cytometric analysis (reference value: 3.39%); assay type: functional

## CN1CCC(Nc2ccc(C(=O)Nc3cc(-c4cc(C#N)cs4)n[nH]3)cc2)CC1
[1]
  Activity: 8.32%
[2]
  Activity: 27.1%
[3]
  Activity: 68.7%
[4]
  Activity: 11.8%
[5]
  Activity: 74.5%
[6]
  Activity: 20.6%
[7]
  Activity: 87.6%
[8]
  Activity: 89.6%
[9]
  Activity: 34%
[10]
  Activity: 5.11%
[11]
  Kd: 500 nM
[12]
  IC50: 2090 nM
[13]
  IC50: 2400 nM
MOLM-13
  inhibition of growth at 10 µM: 92.1%
MV4-11 [14]
  inhibition of growth at 10 µM: 89.9%
HuT78
  inhibition of growth at 10 µM: 3.9%
MCF7
  inhibition of growth at 10 µM: 0.83%
SMMC-7721
  inhibition of growth at 10 µM: 1.47%
MV4-11 [15]
  Activity: Dose-dependent effect
MV4-11 [16]
  Activity: Dose-dependent effect
MV4-11 [17]
  viability at 0.02 µM: 68.6%
MV4-11 [18]
  viability at 0.05 µM: 59.6%
MV4-11 [19]
  viability at 0.1 µM: 56.8%
MV4-11 [20]
  Activity: 21.77%
MV4-11 [21]
  viability at 0.2 µM: 48.8%
MV4-11 [22]
  Activity: 28.65%
MV4-11 [23]
  Activity: 31.43%
